According to patent publication US20040259948A1, “Reciprocal regulation of inflammation and lipid metabolism by liver X receptors” (priority 2003, published 2004):

Assays:
[1] = system: human aortic endothelial cells; assay: TNF-induced gene expression in human aortic endothelial cells; assay type: cell-based; conditions: TNF 6 hours; real time qPCR
Description: (§1) Activation of LXR by synthetic ligands inhibits inflammatory gene expression in multiple human cell types (FIG. 7A-C). TNFα plays a role in the induction of inflammatory mediators in during inflammation. Cells were treated for 6 hours with TNF as indicated and gene expression was measured by real time qPCR.

[2] = system: human peripheral blood mononuclear cells; assay: TNF-induced gene expression in human peripheral blood mononuclear cells; assay type: cell-based; conditions: TNF 6 hours; real time qPCR
Description: as §1

[3] = system: Thioglycolate-elicited murine peritoneal macrophages; assay: Expression of NF-κB target genes in LPS-treated macrophages (northern blot, real-time quantitative PCR); assay type: cell-based
Description: LPS is an established inducer of the NF-κB signaling pathway in macrophages. Several genes inhibited by LXR ligands in the array studies above are established targets of NF-κB. To further investigate the role of LXRs in NF-κB-dependent gene expression, we analyzed expression of NF-κB target genes in peritoneal macrophages from wild-type mice. […] Expression of NF-κB target genes was determined by northern blot (A) or by real-time quantitative PCR assays (B). 36B4 was used as a control for RNA loading and integrity. […] RNA and protein analysis. Total RNA was extracted using Trizol reagent (Life Technologies, Inc.). Northern blot analysis was carried out as described using radiolabeled cDNA probes (Tontonoz, P. et al. 1998 Cell 93:241-252). Real-time quantitative PCR (TaqMan) analysis was performed using an Applied Biosystems 7700 sequence detector. Two-step real-time PCR was performed as described (Joseph, S. B. et al. 2002 J Biol Chem 277:11019-11025). The primers and probes used are as follows: […]

[4] = system: Thioglycolate-elicited murine peritoneal macrophages; assay: IL-1β- or TNFα-induced inflammatory gene expression in macrophages; assay type: cell-based; conditions: pretreated 18 h; IL-1β or TNFα (50 ng/ml); real-time quantitative PCR
Description: Next, the influence of LXR agonists on inflammatory gene expression induced by IL-1β and TNFα, which have been implicated in the pathogenesis of atherosclerosis, was tested. […] Gene expression was detected by real-time quantitative PCR assays. […] Total RNA was isolated from individual aortas and gene expression was measured by real-time quantitative PCR. P<0.05 for MMP-9 (*) and P<0.01 (**) for ABCA1. […] Thus, LXR agonist reduces expression of an established inflammatory mediator in the vessel wall. Cell culture and transfections. Thioglycolate-elicited peritoneal macrophages were cultured in RPMI containing 10% fetal bovine serum (FBS). RAW 264.7 cells were cultured in DMEM containing 10% FBS. For ligand treatments, cells were in cultured medium supplemented with 5% lipoprotein-deficient serum (LPDS) and ligands for 18 h before stimulation. Bacterial infection in vitro was performed as described (Chen, L. M. et al. 1996 Mol Microbiol 21:1101-1115). Transient transfections of RAW 264.7 cells were performed in triplicate in 48-well plates using Superfect reagent (Life Technologies). After transfection, cells were incubated in medium containing 10% LPDS and the indicated ligands for 18 h before stimulation with LPS for an additional 18 h. Luciferase activity was normalized to β-galactosidase activity. NO production was determined spectrophotometrically (Castrillo, A. et al. 2000 Mol Cell Biol 20:1692-1698). RNA and protein analysis. Total RNA was extracted using Trizol reagent (Life Technologies, Inc.). Northern blot analysis was carried out as described using radiolabeled cDNA probes (Tontonoz, P. et al. 1998 Cell 93:241-252). Real-time quantitative PCR (TaqMan) analysis was performed using an Applied Biosystems 7700 sequence detector. Two-step real-time PCR was performed as described (Joseph, S. B. et al. 2002 J Biol Chem 277:11019-11025). The primers and probes used are as follows: […]

C57B1/6 mice = assay: Murine model of irritant contact dermatitis (TPA-treated ear); assay type: in vivo; conditions: topical 20 μl of 10 mM at 45 min and 4 h post-TPA; 18 h; relative to vehicle-treated ear
Description: The effects of LXR ligands in both acute and chronic inflammatory contexts were evaluated. First, the effects of LXR agonists in a murine model of irritant contact dermatitis (Sheu, M. Y. et al. 2002 J Invest Dermatol 118:94-101) were studied. Ears of C57B1/6 mice (n=5 per group) were treated topically with 12-O-tetradecanoylphorbol-13-acetate (TPA) (left ear) or with vehicle (right ear). […] Thickness and weight of 6-mm punch biopsies were determined for each group after 18 h TPA treatment and are presented relative to vehicle-treated ear. […] Analysis of hematoxylin and eosin (H&E) stained sections of the TPA-treated ears confirmed a reduction in edema and inflammatory infiltrate by LXR agonist. Thus, two structurally unrelated LXR agonists have anti-inflammatory activity in a model of cutaneous inflammation.
Animals. Mice on a mixed background (C57B1/6 and 129v) and Apoe^−/− mice on a C57B1/6 background were maintained on standard chow. […] Irritant contact dermatitis was induced as described (Sheu, M. Y. et al. 2002 J Invest Dermatol 118:94-101). Briefly, 10 μl of 0.03% 12-O-tetradecanoylphorbol-13-acetate (TPA) in acetone was applied to the left ears of male mice. The right ears were treated with vehicle alone. […] After 18 h of TPA treatment, the thickness and weight of 6-mm punch biopsies were determined. Statistical analysis was performed using Student's t-test. Experiments were conducted in accordance of the Animal Research Committee of the University of California, Los Angeles.

[5] = pretreated 18 h, 100 ng/ml LPS 3 h and 6 h, northern blot
[6] = pretreated 18 h, 100 ng/ml LPS 6 h, real-time quantitative PCR

receptor-independent induction of IL-6 [3]: modest receptor-independent induction | receptor-independent induction of MCP-1 [3]: modest receptor-independent induction | IL1-receptor antagonist (IL-1RN) expression [3, 6]: effective inhibitors
SMILES: O=C(O)Cc1cccc(OCCCN(Cc2cccc(C(F)(F)F)c2Cl)CC(c2ccccc2)c2ccccc2)c1 [GW3965]
TNF-induced gene expression [1]: inhibited | TNF-induced gene expression [2]: inhibited | iNOS mRNA expression ([3]; LPS, FIG. 3a, receptor-dependent): inhibition | COX-2 expression [3, 5]: effective inhibitors | lκBα expression [3, 5]: effective inhibitors | IL-1β expression [3, 6]: effective inhibitors | IL-6 expression [3, 6]: effective inhibitors | MCP-1 expression [3, 6]: effective inhibitors | induction of IL-6 expression [4]: inhibited | induction of iNOS expression [4]: inhibited | ear thickness (C57B1/6 mice): reduced | ear weight (6-mm punch biopsies) (C57B1/6 mice): reduced
